Source: patent US20080306076A1, “MODULATION OF CHEMOSENSORY RECEPTORS AND LIGANDS ASSOCIATED THEREWITH” (SENOMYX, INC., priority 2007, published 2008)
Substitutions are numbered along the chain they refer to.

Columns and labels:
hT1R1 R277A = target: T1, hT1R1 R277A (Homo sapiens, UniProt Q7RTX1, R277A); assay: Mutagenesis study, hT1R1 mutant R277A; assay type: cell-based; conditions: R277 mutation
T1 construct: expressed in transfected cells; host or cells: HEK293, transient transfection
T1 sequence (Q7RTX1 21-841 R277A): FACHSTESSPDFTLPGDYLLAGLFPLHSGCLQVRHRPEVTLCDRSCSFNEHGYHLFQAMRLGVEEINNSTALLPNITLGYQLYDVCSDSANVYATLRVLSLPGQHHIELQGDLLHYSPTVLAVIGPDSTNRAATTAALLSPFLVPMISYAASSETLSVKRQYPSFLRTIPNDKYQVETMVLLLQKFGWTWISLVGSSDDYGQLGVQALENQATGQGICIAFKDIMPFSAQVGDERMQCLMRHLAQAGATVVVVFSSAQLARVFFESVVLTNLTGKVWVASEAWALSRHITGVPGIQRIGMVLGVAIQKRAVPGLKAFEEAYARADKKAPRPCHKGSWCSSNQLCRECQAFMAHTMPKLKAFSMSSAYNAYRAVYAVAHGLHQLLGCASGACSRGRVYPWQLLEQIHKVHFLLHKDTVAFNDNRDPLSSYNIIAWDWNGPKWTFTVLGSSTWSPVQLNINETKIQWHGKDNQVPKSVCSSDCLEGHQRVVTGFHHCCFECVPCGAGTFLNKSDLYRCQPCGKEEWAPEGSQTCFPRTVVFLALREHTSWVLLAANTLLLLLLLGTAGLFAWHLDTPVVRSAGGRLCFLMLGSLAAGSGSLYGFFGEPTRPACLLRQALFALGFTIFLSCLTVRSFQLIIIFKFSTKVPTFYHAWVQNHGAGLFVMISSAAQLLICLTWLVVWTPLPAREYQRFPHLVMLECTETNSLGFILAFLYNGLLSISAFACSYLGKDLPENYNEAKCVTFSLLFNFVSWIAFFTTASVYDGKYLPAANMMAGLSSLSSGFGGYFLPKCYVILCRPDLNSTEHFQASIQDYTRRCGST
T1 sequence (Q923K1 21-858 partner): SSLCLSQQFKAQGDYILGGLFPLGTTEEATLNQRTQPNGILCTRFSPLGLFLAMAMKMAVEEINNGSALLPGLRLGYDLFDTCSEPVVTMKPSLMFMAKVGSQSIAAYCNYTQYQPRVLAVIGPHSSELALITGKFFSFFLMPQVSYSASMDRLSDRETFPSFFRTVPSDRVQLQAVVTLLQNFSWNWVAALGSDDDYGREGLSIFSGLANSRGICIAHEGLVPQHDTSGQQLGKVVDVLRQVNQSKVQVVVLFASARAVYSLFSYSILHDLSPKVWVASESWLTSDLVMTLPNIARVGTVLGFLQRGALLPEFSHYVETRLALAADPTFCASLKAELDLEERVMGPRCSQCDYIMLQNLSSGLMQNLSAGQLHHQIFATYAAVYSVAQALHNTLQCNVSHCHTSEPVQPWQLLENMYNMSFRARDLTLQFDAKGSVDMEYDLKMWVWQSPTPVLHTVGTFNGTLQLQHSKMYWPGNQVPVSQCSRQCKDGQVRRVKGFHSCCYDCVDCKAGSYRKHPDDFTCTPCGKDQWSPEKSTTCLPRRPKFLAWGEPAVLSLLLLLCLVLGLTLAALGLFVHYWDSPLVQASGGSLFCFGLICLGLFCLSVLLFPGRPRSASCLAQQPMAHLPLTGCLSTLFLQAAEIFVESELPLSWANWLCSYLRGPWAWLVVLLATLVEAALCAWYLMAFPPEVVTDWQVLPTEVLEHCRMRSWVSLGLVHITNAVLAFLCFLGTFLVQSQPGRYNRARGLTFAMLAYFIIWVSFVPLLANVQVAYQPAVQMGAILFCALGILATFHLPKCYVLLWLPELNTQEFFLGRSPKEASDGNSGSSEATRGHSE
Excerpt: (§1) In order to further define the interaction sites of umami stimuli, we performed site-directed mutagenesis on human T1R1 VFT. The mutagenesis was done using the routine PCR-based method. […] were transiently transfected into HEK293 cell together with the rat T1R3 wild type cDNA, and the transfected cells were characterized using an automated FLIPR machine or a calcium imaging system as described in our previous patent applications.

hT1R1 S306A = target: T2, hT1R1 S306A (Homo sapiens, UniProt Q7RTX1, S306A); assay: Mutagenesis study, hT1R1 mutant S306A; assay type: cell-based; conditions: S306 mutation
T2 construct: expressed in transfected cells; host or cells: HEK293, transient transfection
T2 sequence (Q7RTX1 21-841 S306A): T1 sequence (Q7RTX1 21-841 R277A) with A257R, S286A
T2 sequence (Q923K1 21-858 partner): T1 sequence (Q923K1 21-858 partner)
Excerpt: as §1

Nc1nc2c(ncn2[C@@H]2O[C@H](COP(=O)(O)O)[C@@H](O)[C@H]2O)c(=O)[nH]1 [GMP, guanosine-5′-monophosphate]
enhancement activity of GMP (hT1R1 R277A): similarly affected
enhancement activity of GMP (hT1R1 S306A): similarly affected
